Measured values from publication PMC6879718, “Mycobacterial OtsA Structures Unveil Substrate Preference Mechanism and Allosteric Regulation by 2-Oxoglutarate and 2-Phosphoglycerate” (mBio, 2019).

Legend:
[1] = molecular target: T1, M. thermoresistibile OtsA R213E (Mycolicibacterium thermoresistibile, UniProt G7CGT2, R213E); experiment: Effect of allosteric regulators on OtsA activity (R213E); type: biochemical, Mycobacterium thermoresistibile
T1 sequence (G7CGT2 1-486 R213E): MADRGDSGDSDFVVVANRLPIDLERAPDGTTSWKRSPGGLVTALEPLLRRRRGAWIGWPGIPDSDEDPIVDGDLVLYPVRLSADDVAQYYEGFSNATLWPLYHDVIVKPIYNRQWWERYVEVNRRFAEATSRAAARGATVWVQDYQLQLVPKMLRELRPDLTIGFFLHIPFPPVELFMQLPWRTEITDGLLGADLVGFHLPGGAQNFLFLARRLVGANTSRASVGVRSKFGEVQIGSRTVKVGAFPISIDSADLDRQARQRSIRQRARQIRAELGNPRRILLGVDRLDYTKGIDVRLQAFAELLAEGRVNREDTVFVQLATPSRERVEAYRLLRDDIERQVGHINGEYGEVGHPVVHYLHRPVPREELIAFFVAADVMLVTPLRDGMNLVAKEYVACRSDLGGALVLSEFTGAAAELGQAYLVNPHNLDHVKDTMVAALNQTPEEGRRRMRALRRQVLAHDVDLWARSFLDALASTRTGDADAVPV
Method: (§1) . All reagents used were obtained from Sigma-Aldrich. The enzymatic reactions (200-μl reaction mixture) were performed at 37°C, and the reaction mixtures contained 50 mM Tris (pH 7.5), 200 mM NaCl, 10 mM MgCl2, 50 mM KCl, 0.3 mM NADH, 2.5 mM phosphoenolpyruvate (PEP), 10 units of pyruvate kinase-lactate dehydrogenase, 0.1 μM enzyme, and various concentrations of G6P and NDP-glucose to determine kinetic parameters.
(§2) […]. All experiments were performed in triplicate in a PHERAstar plate reader (BMG Labtech), and data were analyzed with Prism 5 (GraphPad Software).

[2] = molecular target: T2, M. thermoresistibile OtsA R384E (Mycolicibacterium thermoresistibile, UniProt G7CGT2, R384E); experiment: Effect of allosteric regulators on OtsA activity (R384E); type: biochemical, Mycobacterium thermoresistibile
T2 sequence (G7CGT2 1-486 R384E): T1 sequence (G7CGT2 1-486 R213E)
Method: as §1, §2

## O=C(O)C(CO)OP(=O)(O)O (centres unmarked) [2PG, 2-phosphoglyceric acid]
[1]
  IC50: 12 mM
[2]
  IC50: < 100 mM
